Measured values published in PubChem BioAssay (NCI).
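Tested at 5 concentrations; 48 h exposure; 96-well plates; endpoints linearly interpolated, else capped at highest concentration. GI50: concentration for 50% inhibition of growth. TGI is the concentration that stops growth completely.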

What was measured:
Assay in all cases: NCI tumour cell line growth inhibition, 48 h
OVCAR-5 ovarian = test system: OVCAR-5 ovarian
UO-31 renal = test system: UO-31 renal
HCT-15 colon = test system: HCT-15 colon
TK-10 renal = test system: TK-10 renal
IGROV1 ovarian = test system: IGROV1 ovarian
MOLT-4 leukemia = test system: MOLT-4 leukemia
RPMI-8226 leukemia = test system: RPMI-8226 leukemia
HL-60(TB) leukemia = test system: HL-60(TB) leukemia
T-47D breast = test system: T-47D breast
MCF7 breast = test system: MCF7 breast

Structure (SMILES)	TGI (OVCAR-5 ovarian)	TGI (UO-31 renal)	TGI (HCT-15 colon)	TGI (TK-10 renal)	TGI (IGROV1 ovarian)	TGI (MOLT-4 leukemia)	TGI (RPMI-8226 leukemia)	TGI (HL-60(TB) leukemia)	GI50 (OVCAR-5 ovarian)	GI50 (UO-31 renal)	GI50 (HCT-15 colon)	GI50 (TK-10 renal)	GI50 (T-47D breast)	TGI (T-47D breast)	GI50 (IGROV1 ovarian)	TGI (MCF7 breast)	GI50 (MOLT-4 leukemia)
Nc1ncnc2c1ncn2C1OC(CO)CC1O (centres undefined)	> 100 µM	> 100 µM	83.3 µM	> 100 µM	> 100 µM	> 100 µM											
COc1ccc(C(=C(C#N)C#N)c2ccc(OC)cc2)cc1	> 100 µM	> 100 µM	> 100 µM	> 100 µM	> 100 µM	> 100 µM	> 100 µM	> 100 µM									
OCC(O)C(O)C(O)c1nn[nH]n1 (centres undefined)	> 100 µM	> 100 µM	> 100 µM		> 100 µM	> 100 µM	> 100 µM	> 100 µM									
Cc1cc(Cl)ccc1NC(=O)C1C(=O)C(=O)N(c2ccc(Cl)cc2C)C1=O (centres undefined)	> 100 µM	> 100 µM	> 100 µM	> 100 µM	> 100 µM	> 100 µM	> 100 µM	> 100 µM									
O=C1C2c3[nH]c4ccccc4c3C3CCC(c4ccccc4)CC3C2C(=O)N1c1ccccc1 (centres undefined)	> 100 µM	> 100 µM	> 100 µM	> 100 µM	> 100 µM	> 100 µM	> 100 µM	71.1 µM									
COC(=O)c1ccc(CS(=O)(=O)c2ccccc2)cc1	> 100 µM	> 100 µM	> 100 µM	> 100 µM	> 100 µM	> 100 µM	> 100 µM	> 100 µM									
COc1cccc(-c2cc(C(=O)Nc3ccc(Cl)cc3)nc(N)n2)c1	> 100 µM	> 100 µM	> 100 µM	> 100 µM	> 100 µM	> 100 µM	> 100 µM	> 100 µM									
Clc1cc(Cl)cc(C2SCc3nc4ccccc4n32)c1 (centres undefined)	71.4 µM	43.5 µM		70.2 µM		57.2 µM	98.4 µM	53.4 µM									
O=C(NCCN1CCOCC1)Nc1nc2ccc(Sc3nnc4ccc(-c5ccc(F)cc5)nn34)cc2s1	> 100 µM	> 100 µM	> 100 µM	> 100 µM	> 100 µM	> 100 µM			> 39 µM	> 100 µM	> 26.7 µM	> 100 µM	> 21.2 µM	> 59.6 µM	> 100 µM	> 100 µM	> 100 µM
N#Cc1c(N)n(C2OC(CO)C(O)C2O)c2ncnc(N)c12 (centres undefined)	3.28 µM		0.164 µM		> 100 µM	0.163 µM	3.59 µM							0.221 µM		1.21 µM	
N#CC1=C(c2ccccc2)NN(Cc2ccccc2)C(c2ccc(Cl)cc2)CC1=O (centres undefined)	> 100 µM		90.6 µM	> 100 µM		> 100 µM	64.8 µM	84.6 µM									
CN(C)C(=O)C(NCCO)c1ccccc1 (centres undefined)	> 100 µM	> 100 µM	> 100 µM	> 100 µM	> 100 µM	> 100 µM	59.7 µM							> 100 µM		> 100 µM	
CCOc1cccc2sc(N)nc12	> 100 µM	> 100 µM	> 100 µM	> 100 µM	> 100 µM	> 100 µM	> 100 µM	> 100 µM									
